Results from ChEMBL document CHEMBL1201862, “PubChem BioAssay data set” (2004).
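Tested at 5 concentrations; 48 h exposure; 96-well plates; endpoints linearly interpolated, else capped at highest concentration. GI50 = concentration required for 50% inhibition of growth.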 Calls of active or inactive are those of the source. No stated cut-off is given here; in the data, active = GI50 up to about 1.1 µM and inactive = higher.

How the values were obtained:
Assay in all cases: NCI-60 cell line screen, 48 h
LOX IMVI = test system: LOX IMVI
HT-29 = test system: HT-29
SN12C = test system: SN12C
SF-295 = test system: SF-295
TK-10 = test system: TK-10
M14 = test system: M14
DMS-273 = test system: DMS-273
IGROV-1 = test system: IGROV-1
HL-60 = test system: HL-60
SF-539 = test system: SF-539
A549 = test system: A549
UO-31 = test system: UO-31
DLD-1 = test system: DLD-1
A498 = test system: A498
RPMI-8226 = test system: RPMI-8226
LXFL 529 = test system: LXFL 529
NCI-H522 = test system: NCI-H522
SK-MEL-5 = test system: SK-MEL-5
Malme-3M = test system: Malme-3M
EKVX = test system: EKVX
SNB-19 = test system: SNB-19
NCI-H23 = test system: NCI-H23
NCI-H460 = test system: NCI-H460
ACHN = test system: ACHN
KM12 = test system: KM12
UACC-257 = test system: UACC-257
SW-620 = test system: SW-620
COLO 205 = test system: COLO 205
SK-MEL-28 = test system: SK-MEL-28
SR = test system: SR
CCRF-CEM = test system: CCRF-CEM
K562 = test system: K562
NCI-H226 = test system: NCI-H226
RXF 393 = test system: RXF 393
SK-OV-3 = test system: SK-OV-3
XF498 = test system: XF498
MOLT-4 = test system: MOLT-4
SF-268 = test system: SF-268
SNB-75 = test system: SNB-75
SNB-78 = test system: SNB-78
HCT-15 = test system: HCT-15
SK-MEL-2 = test system: SK-MEL-2
HOP-62 = test system: HOP-62
HCC 2998 = test system: HCC 2998
M19-MEL = test system: M19-MEL
HCT-116 = test system: HCT-116
OVCAR-4 = test system: OVCAR-4
HOP-92 = test system: HOP-92
UACC-62 = test system: UACC-62
OVCAR-8 = test system: OVCAR-8
U-251 = test system: U-251
RXF 631 = test system: RXF 631
OVCAR-3 = test system: OVCAR-3
OVCAR-5 = test system: OVCAR-5
DMS-114 = test system: DMS-114
786-0 = test system: 786-0

COc1ccc(O)c2c(=O)ccccc12
GI50 (LOX IMVI): > 100 µM (inactive)
GI50 (HT-29): > 100 µM (inactive)
GI50 (SN12C): > 100 µM (inactive)
GI50 (SF-295): > 100 µM (inactive)
GI50 (TK-10): 6.32 µM (inactive)
GI50 (M14): > 100 µM (inactive)
GI50 (DMS-273): > 100 µM (inactive)
GI50 (IGROV-1): > 100 µM (inactive)
GI50 (HL-60): > 100 µM (inactive)
GI50 (SF-539): > 100 µM (inactive)
GI50 (A549): > 100 µM (inactive)
GI50 (UO-31): 78.2 µM (inactive)
GI50 (DLD-1): > 100 µM (inactive)
GI50 (A498): > 100 µM (inactive)
GI50 (RPMI-8226): > 100 µM (inactive)
GI50 (LXFL 529): > 100 µM (inactive)
GI50 (NCI-H522): 28.8 µM (inactive)
GI50 (SK-MEL-5): > 100 µM (inactive)
GI50 (Malme-3M): > 100 µM (inactive)
GI50 (EKVX): > 100 µM (inactive)
GI50 (SNB-19): > 100 µM (inactive)
GI50 (NCI-H23): > 100 µM (inactive)
GI50 (NCI-H460): > 100 µM (inactive)
GI50 (ACHN): > 100 µM (inactive)
GI50 (KM12): > 100 µM (inactive)
GI50 (UACC-257): > 100 µM (inactive)
GI50 (SW-620): > 100 µM (inactive)
GI50 (COLO 205): > 100 µM (inactive)
GI50 (SK-MEL-28): > 100 µM (inactive)
GI50 (SR): > 100 µM (inactive)
GI50 (CCRF-CEM): > 100 µM (inactive)
GI50 (K562): > 100 µM (inactive)
GI50 (NCI-H226): 46.2 µM (inactive)
GI50 (RXF 393): 4.79 µM (inactive)
GI50 (SK-OV-3): > 100 µM (inactive)
GI50 (XF498): 2.69 µM (inactive)
GI50 (MOLT-4): > 100 µM (inactive)
GI50 (SF-268): > 100 µM (inactive)
GI50 (SNB-75): > 100 µM (inactive)
GI50 (SNB-78): > 100 µM (inactive)
GI50 (HCT-15): > 100 µM
GI50 (SK-MEL-2): > 100 µM (inactive)
GI50 (HOP-62): > 100 µM (inactive)
GI50 (HCC 2998): > 100 µM (inactive)
GI50 (M19-MEL): > 100 µM (inactive)
GI50 (HCT-116): > 100 µM (inactive)
GI50 (OVCAR-4): > 100 µM (inactive)
GI50 (HOP-92): > 100 µM (inactive)
GI50 (UACC-62): 92.3 µM (inactive)
GI50 (OVCAR-8): > 100 µM (inactive)
GI50 (U-251): > 100 µM (inactive)
GI50 (RXF 631): > 100 µM (inactive)
GI50 (OVCAR-3): > 100 µM (inactive)
GI50 (OVCAR-5): > 100 µM (inactive)
GI50 (DMS-114): > 100 µM (inactive)
GI50 (786-0): > 100 µM (inactive)
